Results: patent publication US20120028985A1, “COMBINATIONAL THERAPY FOR TREATING AUTOIMMUNE DISEASE” (4SC AG, priority 2008, published 2012)
Entries after “also recorded” stand apart in the source; their conditions may differ. Marks after values point to notes of the source that are not given here.

Assays:
DBA1/J mice = experiment: Liver histology in collagen induced arthritis mice; type: in vivo; conditions: individual mouse; diseased mice; po, MTX 2.5 mg/kg, Formula (II) 50 mg/kg
From the text: Dosing is started, PO (per oral) once daily for 14 days.

Beagle dogs [1] = tested on: Beagle dogs
From the text: The animals were randomly allocated to five test groups employing a pseudo-random body weight stratification procedure that yielded groups with approximately equal mean body weights. […] A special focus of the study was to study the influence of the combination treatment on liver toxicity.

[2] = Toxicokinetics of formula (II) and methotrexate after individual and concomitant administration to Beagle dogs; type: in vivo; conditions: Beagle, dog, plasma, po, mean
Beagle dogs [3] = experiment: 13-week repeat dose toxicity in Beagle dogs, combination with methotrexate: clinical biochemistry (ALAT, ASAT); type: in vivo; conditions: for ALAT, change as compared to the control group 1 / ASAT, change as compared to the control group 1: 25 mg Formula (II)/kg/day and/or 10/2.5 mg MTX/kg/week, p.o.
Protocol: For laboratory examinations blood samples were taken from the vena cephalica or vena saphena magna from animals fasted overnight. Serum samples were collected into tubes for biochemical tests. Clinical biochemistry parameters from venous blood were determined at the times listed below:
Prior to study start: all animals of a pool of 52 dogs […]
At the end of the recovery period: all 8 recovery animals included in this study
Clinical biochemistry parameters (e.g. bile acids, alanine aminotransferase=ALAT, alkaline phosphatise=aP, aspartate aminotransferase=ASAT, gamma-glutamyl-transferase=Gamma-GT, glutamate dehydrogenase=GLDH, creatine kinase=CK) were measured using KONELAB 30i instrument (Thermo Fisher Scientific, 63303 Dreieich, Germany) as U/L (unit/liter) serum.

[4] = female, 2.5 mg/kg, Group 3, methotrexate alone 2.5 mg/kg (reduced from 10), week 13, female Beagle dogs
[5] = female, 2.5 mg/kg, Group 4 (+10SC, in combination with 10 mg/kg formula (II)), methotrexate 2.5 mg/kg (reduced from 10), week 13, female Beagle dogs
[6] = female, 2.5 mg/kg, Group 5 (+25SC, in combination with 25 mg/kg formula (II)), methotrexate 2.5 mg/kg (reduced from 10), week 13, female Beagle dogs
[7] = female, 10 mg/kg, Group 3, methotrexate 10 mg/kg alone, day 1, female Beagle dogs
[8] = female, 10 mg/kg, Group 4 (+10SC, in combination with 10 mg/kg formula (II)), methotrexate 10 mg/kg, day 1, female Beagle dogs
[9] = female, 10 mg/kg, Group 5 (+25SC, in combination with 25 mg/kg formula (II)), methotrexate 10 mg/kg, day 1, female Beagle dogs
[10] = male, 2.5 mg/kg, Group 3, methotrexate alone 2.5 mg/kg (reduced from 10), week 13, male Beagle dogs
[11] = male, 2.5 mg/kg, Group 4 (+10SC, in combination with 10 mg/kg formula (II)), methotrexate 2.5 mg/kg (reduced from 10), week 13, male Beagle dogs
[12] = male, 2.5 mg/kg, Group 5 (+25SC, in combination with 25 mg/kg formula (II)), methotrexate 2.5 mg/kg (reduced from 10), week 13, male Beagle dogs
[13] = male, 10 mg/kg, Group 3, methotrexate 10 mg/kg alone, day 1, male Beagle dogs
[14] = male, 10 mg/kg, Group 4 (+10SC, in combination with 10 mg/kg formula (II)), methotrexate 10 mg/kg, day 1, male Beagle dogs
[15] = male, 10 mg/kg, Group 5 (+25SC, in combination with 25 mg/kg formula (II)), methotrexate 10 mg/kg, day 1, male Beagle dogs

SMILES: CN(Cc1cnc2nc(N)nc(N)c2n1)c1ccc(C(=O)N[C@@H](CCC(=O)O)C(=O)O)cc1 [MTX, methotrexate, reference compound]
- Liver Histology, Observations (DBA1/J mice): Minimal glycogen depletion, hepatocyte; also recorded: Mild glycogen depletion, hepatocyte; also recorded: Normal; also recorded: Minimal multifocal subacute inflammation
- Premature death (Beagle dogs [1]; Beagle dogs, 10 mg MTX/kg body weight/week, oral): found dead in the morning of test day 20
- Enteritis in the gastro-intestinal mucosa (Beagle dogs [1]; dog, in vivo, po): most pronounced
- AUC(0-inf) [2, 4]: 2200 ng·h/mL
- Cmax [2, 4]: 500 ng/mL
- half-life [2, 4]: 2.3 h
- AUC(0-inf) [2, 5]: 1900 ng·h/mL
- Cmax [2, 5]: 400 ng/mL
- half-life [2, 5]: 2.6 h
- AUC(0-inf) [2, 6]: 1400 ng·h/mL
- Cmax [2, 6]: 200 ng/mL
- half-life [2, 6]: 2.7 h
- AUC(0-inf) [2, 7]: 5300 ng·h/mL
- Cmax [2, 7]: 1100 ng/mL
- half-life [2, 7]: 2.4 h
- AUC(0-inf) [2, 8]: 7500 ng·h/mL
- Cmax [2, 8]: 1700 ng/mL
- AUC(0-inf) [2, 9]: 5000 ng·h/mL
- Cmax [2, 9]: 1200 ng/mL
- half-life [2, 9]: 2 h
- AUC(0-inf) [2, 10]: 3000 ng·h/mL
- Cmax [2, 10]: 700 ng/mL
- half-life [2, 10]: 2.6 h
- AUC(0-inf) [2, 11]: 2000 ng·h/mL
- Cmax [2, 11]: 400 ng/mL
- half-life [2, 11]: 2 h
- AUC(0-inf) [2, 12]: 2500 ng·h/mL
- Cmax [2, 12]: 600 ng/mL
- half-life [2, 12]: 2.1 h
- AUC(0-inf) [2, 13]: 6400 ng·h/mL
- Cmax [2, 13]: 1800 ng/mL
- half-life [2, 13]: 1.6 h
- AUC(0-inf) [2, 14]: 6600 ng·h/mL
- Cmax [2, 14]: 1700 ng/mL
- half-life [2, 14]: 1.6 h
- AUC(0-inf) [2, 15]: 5900 ng·h/mL
- Cmax [2, 15]: 1200 ng/mL
- half-life [2, 15]: 2.2 h
- Changes in the biochemical parameters (Beagle dogs [3]; Beagle dogs, 13 weeks oral, serum): pronounced and statistically significant (at p≦0.01) changes in the biochemical parameters of ALAT, ASAT, CK, GLDH as well as bile acids
- ALAT, change as compared to the control group 1 (Beagle dogs [3]; Test day 37, females): +190%
- ASAT, change as compared to the control group 1 (Beagle dogs [3]; Test day 37, females): +47** %
- ALAT, change as compared to the control group 1 (Beagle dogs [3]; Test day 37, males): none
- ASAT, change as compared to the control group 1 (Beagle dogs [3]; Test day 37, males): none
- ALAT, change as compared to the control group 1 (Beagle dogs [3]; Test day 93, females): +567%
- ASAT, change as compared to the control group 1 (Beagle dogs [3]; Test day 93, females): +34** %
- ALAT, change as compared to the control group 1 (Beagle dogs [3]; Test day 93, males): +386%
- ASAT, change as compared to the control group 1 (Beagle dogs [3]; Test day 93, males): +55** %
